The values that follow are results of earlier work, collected in publication PMC8982769 (Open Forum Infectious Diseases, 2022).

The conditions of series [1]: humans.
The conditions of series [2]: within 6 to 12 hours after IV administration.
The conditions of series [3]: up to 24 grams of parenteral HPβCD daily for 15 days.
Series [4] relates to enterococci carrying vanA, vanB, and vanC genes. The conditions noted are these: in vitro.
A further series relates to VRE. To be noted: within 48 to 72 hours.

As for 2-hydroxypropyl-β-cyclodextrin [HPβCD], in series [1], the Elimination half-life was 1.7 to 1.9 h. For the same substance, the “dose recovered in the urine” value in series [2] is 100%. For the same substance, the side effects result in series [3] was “no side effects were observed”.
Regarding Oritavancin diphosphate, the MIC90 in series [4] is ≤ 0.5 µg/mL. Also, in the series with VRE, the log kill was > 3 log.
